Measured values reported in patent US7479374B2, “Triacylglycerol-deficient fission yeast and its uses” (priority 2003, dated 2009).
Residues, ends and D or L forms follow the SMILES beside them. *: point of attachment. Cbz = O=C(OCc1ccccc1)*; CH2F = FC*

Columns and labels:
Assay type in all cases: cell-based, Schizosaccharomyces pombe
[1] = system: DKO strain (S. pombe Δplh1 Δdga1 double deletion); experiment: Cell viability assay (colony forming) after treatment
Method: (§1) Cell viability assay: For cell viability at different growth phases, cells were grown to various densities in YES (determined by OD595). The number of viable cells was obtained after cells were diluted properly in distilled water and plated in triplicates on YES agar. Colonies were scored after 3 days of incubation at 30° C. For cell viability after various treatments, cells were grown to early log phase (OD595=0.1) before lipids or other chemicals were added. After treatment, cells were collected and viability was analyzed as described above.
(§2) DAG, fatty acid and ceramide treatment: For fatty acid treatment, palmitic acid and oleic acid were dissolved in chloroform as 500 mM stock. Each microliter of fatty acids was dissolved in 12.5 μl tyloxapol-enthanol (1:1) and added into growth medium. Wild type and DKO strains were grown to early log phase and then incubated in medium containing different concentrations (0.5 mM, 0.8 mM and 1 mM) of palmitic acid or oleic acid for 0-3 hours. Control groups were cultured in the medium added with the same volume of tyloxapol-enthanol without fatty acids. After incubation, cells were analyzed for viability and DNA fragmentation. DiC8 DAG and ceramide were dissolved in DMSO. The working concentrations for DAG was 0.1 mM, 0.2 mM or 0.3 mM, while for ceramide was 10 μM or 20 μM (23, 24).

[2] = system: DKO strain (S. pombe Δplh1 Δdga1 double deletion); experiment: Detection of apoptotic markers: DAPI staining and TUNEL (DNA fragmentation); settings: for cells undergoing apoptosis in the presence of the inhibitor / rescue of palmitate-induced apoptosis: double deletion cells treated with 0.8 mM of palmitate; for apoptosis induced by fatty acid: DKO cells, early log phase, two hours (FIGS. 14-16)
Method: as §2
Detection of apoptotic markers: All assays in this section were performed as previously described (26).
(§3) 4′,6-diamidino-2-phenylindole (DAPI) staining: Cells were fixed with 3.7% formaldehyde for 10 minutes, washed once with PBS containing 4% NP40 and twice with PBS, and then stained with DAPI. Cells were viewed using a Leica DMLB microscope.
(§4) Terminal deoxynucleotidyl transferase(TdT)-mediated dUTP nick-end labeling (TUNEL): Cells were fixed with 3.7% formaldehyde for 1 hr, digested with zymolase, washed with PBS, incubated in a permeabilization solution (0.1% Triton in 0.1% sodium citrate) for 2 minutes on ice, washed twice with PBS and incubated with 50 μl TUNEL mixtures for 1 hour at 37° C. Cells were washed with PBS twice and were viewed using a Leica DMLB microscope.

DKO cells [3] = experiment: Production of reactive oxygen species (dihydroethidium); settings: for ROS production: incubation of log phase cells
Method: Production of reactive oxygen species: ROS were detected by dihydroethidium (Sigma), which was used at 5 μg per ml cell culture. After incubation for 10 minutes, cells were viewed under a Leica DMLB microscope through a Texas Red filter. The free radical spin trap reagent 3,3,5,5,-tetramethyl-pyrroline N-oxide (TMPO) was used at 125 μg per ml cell culture. Cells were pretreated with […] for 2 hours before lipids were added.

DKO cells [4] = experiment: Diacylglycerol kinase assay of cellular DAG level
Method: (§5) Diacylglycerol kinase assay: The assay was conducted as described in the Biotrak assay reagents system (Amersham Biosciences). Wild type and DKO yeast cells were grown in YES medium to mid log phase and then treated with medium containing 0.8 mM palmitate or oleate. Cells were collected at different time points (0, 30, 60 and 120 minutes). DAG was extracted with other lipids and quantified through a phosphorylation reaction catalyzed by a bacterial DAG kinase.

wild type cells = experiment: Diacylglycerol kinase assay of cellular DAG level, wild type; settings: after 2-hour incubation with palmitate, from 1
Method: as §5

[5] = system: WT and DKO S. pombe cells; experiment: DHS, PHS or C2-ceramide treatment: viability and DNA fragmentation; settings: various concentrations, 0-3 hours
Method: as §1, §2, §3, §4

[6] = mutant cells pretreated with TMPO (125 μg/ml) for 2 hours, then 1 mM palmitate for 2 hours
[7] = caspase inhibitor added, data not shown
[8] = DKO strain, early log phase cells, various concentrations of diC8 DAG, 0-3 hours

CC1(C)C=[N+]([O-])C(C)(C)C1 [TMPO, 3,3,5,5,-tetramethyl-pyrroline N-oxide]
prevention of cell death [1, 6]: prevent DNA fragmentation (FIG. 24) and cell death
prevention of DNA fragmentation [2, 6]: prevent DNA fragmentation
scavenging of ROS (DKO cells [3]; [6]): could effectively scavenge ROS

CCCCCCC(=O)CCCCCC/C=C/C[C@@H](O)[C@H](O)[C@@](N)(CO)C(=O)O [myriocin]
cells undergoing apoptosis in the presence of the inhibitor ([2]; data not shown): more cells underwent apoptosis
rescue of palmitate-induced apoptosis ([2]; data not shown): no rescue of apoptosis was observed

COC(=O)C[C@H](NC(=O)[C@H](C)NC(=O)[C@@H](NC(=O)OCc1ccccc1)C(C)C)C(=O)CF [zVADfmk] (Cbz-Val-Ala-Asp(OMe)-CH2F)
prevention of cell death [1, 7]: failed to prevent cell death
prevention of DNA fragmentation [2, 7]: failed to prevent cell death and DNA fragmentation

CCCCCCCCCCCCCCCC(=O)O [palmitate, palmitic acid]
apoptosis induced by fatty acid [2]: caused the DKO cells to undergo apoptosis
DAG level (DKO cells [4]; after 2-hour incubation with 0.8 mM palmitate, 1 nmol/mg dry weight before addition): 3.5 nmol/mg dry weight
DAG level (wild type cells): 1.5 nM/mg dry weight
ROS production (DKO cells [3]): induced dramatic ROS production

CCCCCCCCCCCCCC[C@@H](O)[C@@H](O)[C@@H](N)CO [PHS, phytosphingosine]
DNA fragmentation [5]: no DNA fragmentation was observed
killing of S. pombe cells [5]: could kill S. pombe cells at high concentrations

CCCCCCCCCCCCC/C=C/[C@@H](O)[C@H](CO)NC(C)=O [C2-ceramide, N-acetylsphigosine]
DNA fragmentation [5]: no DNA fragmentation was observed
killing of S. pombe cells [5]: could kill S. pombe cells at high concentrations

CCCCCCCC(=O)OC[C@H](CO)OC(=O)CCCCCCC [diC8 DAG, 1,2-dioctanoyl-sn-glycerol]
cell death [1, 8]: cell death were observed in the DKO strain
nuclear DNA fragmentation [2, 8]: prominent nuclear DNA fragmentation
percentage of cells showing DNA fragmentation, dependence on time and concentration ([2]; DKO strain, up to 3 hours, up to 0.3 mM): generally increases with time (up to 3 hours) and concentration
ROS production (DKO cells [3]): induced dramatic ROS production

CCCCCCCC/C=C\CCCCCCCC(=O)O [oleate, oleic acid]
apoptosis induced by fatty acid [2]: caused the DKO cells to undergo apoptosis
DAG level (DKO cells [4]; after 2-hour incubation with oleate, from 1): 2.5 nM/mg dry weight
ROS production (DKO cells [3]): induced dramatic ROS production

CCCCCCCCCCCCCCC[C@@H](O)[C@@H](N)CO [DHS, dihydrosphingosine]
DNA fragmentation [5]: no DNA fragmentation was observed
killing of S. pombe cells [5]: could kill S. pombe cells at high concentrations

CCCC[C@@H](C)[C@@H](OC(=O)C[C@@H](CC(=O)O)C(=O)O)[C@H](C[C@@H](C)C[C@H](O)CCCC[C@@H](O)C[C@H](O)[C@H](C)N)OC(=O)C[C@@H](CC(=O)O)C(=O)O [fumonisin B1]
cells undergoing apoptosis in the presence of the inhibitor ([2]; data not shown): more cells underwent apoptosis
rescue of palmitate-induced apoptosis ([2]; data not shown): no rescue of apoptosis was observed
